Experimental data published in publication PMC12396409, “Screening and hit evaluation of a microbial metabolite library against the pathogenic Plasmodium falciparum and Toxoplasma gondii parasites” (International Journal for Parasitology: Drugs and Drug …, 2025).
Where a name gives a salt, the structure may show the parent alone. Read-outs that look alike come from different tables or passages of the source.

Columns and labels:
[1] = system: P. falciparum 3D7 parasites; test: P. falciparum growth inhibition assay, 1-cycle (72 h treatment), SYBR DNA staining (library screen at 2 μg/mL and dose-response); assay type: cell-based, Plasmodium falciparum; conditions: for activity at 2 µg/mL: Plasmodium falciparum
[2] = system: P. falciparum 3D7 parasites; test: P. falciparum growth inhibition assay, 2-cycle (120 h treatment), delayed-death screen and dose-response; assay type: cell-based, Plasmodium falciparum; conditions: for activity at 2 µg/mL: Plasmodium falciparum
[3] = system: T. gondii RH strain (RH-Tub-eYFP) tachyzoites; test: microbe, parasite or virus in culture; assay type: cell-based, Toxoplasma gondii; conditions: for percent parasite growth at 2 µg/mL: Toxoplasma gondii
[4] = library screen at 2 μg/mL, 72 h, % growth, replicate 1
[5] = library screen at 2 μg/mL, 72 h, % growth, replicate 2
[6] = library screen at 2 μg/mL, 120 h, % growth, replicate 1
[7] = library screen at 2 μg/mL, 120 h, % growth, replicate 2

SMILES: CC1=CCC2CC(CC3(CCC(C)C(C)O3)O2)OC(=O)C2C=C(C)C(=NO)C3OCC(=CC=CC(C)C1)C23O (stereo not drawn) [BIA-M1531]
- Pf_72h_%Growth_Rep1 ([1]; P. falciparum 3D7, 72 h, parasite screen at 2 μg/mL, % growth, replicate 1): 53.63%
- Pf_72h_%Growth_Rep2 ([1]; P. falciparum 3D7, 72 h, parasite screen at 2 μg/mL, % growth, replicate 2): 28.47%
- Pf_120h_%Growth_Rep1 ([2]; P. falciparum 3D7, 120 h, parasite screen at 2 μg/mL, % growth, replicate 1): 36.91%
- Pf_120h_%Growth_Rep2 ([2]; P. falciparum 3D7, 120 h, parasite screen at 2 μg/mL, % growth, replicate 2): 51.60%
- Tg_72h_%Growth_Rep1 ([3]; T. gondii, 72 h, parasite screen at 2 μg/mL, % growth, replicate 1): 75.89%
- Tg_72h_%Growth_Rep2 ([3]; T. gondii, 72 h, parasite screen at 2 μg/mL, % growth, replicate 2): 79.64%

SMILES: CN(CC[C@H](N)CC(=O)N[C@H]1C=C[C@H](n2ccc(N)nc2=O)O[C@@H]1C(=O)O)C(=N)N [Blasticidin S]
- activity at 2 µg/mL ([1]; 3D7, 72 h, P. falciparum, 72 h, screen at 2 μg/mL, replicate 1, read-out: Pf_72h_%Growth_Rep1): 4.31%
- activity at 2 µg/mL ([1]; 3D7, 72 h, P. falciparum, 72 h, screen at 2 μg/mL, replicate 2, read-out: Pf_72h_%Growth_Rep2): 2.87%
- activity at 2 µg/mL ([2]; 3D7, 120 h, P. falciparum, 120 h, screen at 2 μg/mL, replicate 1, read-out: Pf_120h_%Growth_Rep1): 5.52%
- activity at 2 µg/mL ([2]; 3D7, 120 h, P. falciparum, 120 h, screen at 2 μg/mL, replicate 2, read-out: Pf_120h_%Growth_Rep2): -7.54%
- percent parasite growth at 2 µg/mL ([3]; 72 h, T. gondii, 72 h, screen at 2 μg/mL, replicate 1, read-out: Tg_72h_%Growth_Rep1): 73.3%
- percent parasite growth at 2 µg/mL ([3]; 72 h, T. gondii, 72 h, screen at 2 μg/mL, replicate 2, read-out: Tg_72h_%Growth_Rep2): 30%

SMILES: C=CCNC1=C2C[C@@H](C)C[C@H](OC)[C@H](O)[C@@H](C)/C=C(\C)[C@H](OC(N)=O)[C@@H](OC)/C=C\C=C(/C)C(=O)NC(=CC1=O)C2=O [Allylamino-17-demethoxygeldanamycin, 17-]
- Pf_72h_%Growth_Rep1 [1, 4]: 14.05%
- Pf_72h_%Growth_Rep2 [1, 5]: 5.13%
- Pf_120h_%Growth_Rep1 [2, 6]: 19.67%
- Pf_120h_%Growth_Rep2 [2, 7]: 7.18%
- Tg_72h_%Growth_Rep1 [3, 4]: -1.02%
- Tg_72h_%Growth_Rep2 [3, 5]: -0.21%

SMILES: CO/C1=C\C(C)=C\C(C)C(O)C(C)C/C(C)=C/C=C/C(OC)C(C(C)C(O)C(C)C2(O)CC(OC(=O)/C=C/C(=O)O)C(C)C(C(C)C)O2)OC1=O (stereo not drawn) [Bafilomycin C1]
- Pf_72h_%Growth_Rep1 [1, 4]: 1.92%
- Pf_72h_%Growth_Rep2 [1, 5]: 0.47%
- Pf_120h_%Growth_Rep1 [2, 6]: 3.53%
- Pf_120h_%Growth_Rep2 [2, 7]: -2.55%
- Tg_72h_%Growth_Rep1 [3, 4]: -0.73%
- Tg_72h_%Growth_Rep2 [3, 5]: -0.13%

SMILES: C=C1CC[C@H]2C(C)(C)CCC[C@]2(C)[C@H]1C[C@@]12C[C@H]3C(=O)N4CCC[C@H]4C(=O)N3[C@@H]1Nc1ccccc12 [Drimentine C]
- activity at 2 µg/mL ([1]; 3D7, library screen at 2 μg/mL, 72 h, % growth, replicate 1, read-out: Pf_72h_%Growth_Rep1): 85.2%
- activity at 2 µg/mL ([1]; 3D7, library screen at 2 μg/mL, 72 h, % growth, replicate 2, read-out: Pf_72h_%Growth_Rep2): 87.9%
- activity at 2 µg/mL ([2]; 3D7, library screen at 2 μg/mL, 120 h, % growth, replicate 1, read-out: Pf_120h_%Growth_Rep1): 78.4%
- activity at 2 µg/mL ([2]; 3D7, library screen at 2 μg/mL, 120 h, % growth, replicate 2, read-out: Pf_120h_%Growth_Rep2): 103%
- percent parasite growth at 2 µg/mL ([3]; 72 h, library screen at 2 μg/mL, 72 h, % growth, replicate 1, read-out: Tg_72h_%Growth_Rep1): 91.6%
- percent parasite growth at 2 µg/mL ([3]; 72 h, library screen at 2 μg/mL, 72 h, % growth, replicate 2, read-out: Tg_72h_%Growth_Rep2): 73.3%

SMILES: COc1cc2c(c3oc(=O)c4c(c13)CCOC4=O)C1C=COC1O2 (stereo not drawn) [Aflatoxin G1]
- Pf_72h_%Growth_Rep1 [1]: 72.54%
- Pf_72h_%Growth_Rep2 [1]: 87.39%
- Pf_120h_%Growth_Rep1 [2]: 145.89%
- Pf_120h_%Growth_Rep2 [2]: 92.80%
- Tg_72h_%Growth_Rep1 [3]: 81.49%
- Tg_72h_%Growth_Rep2 [3]: 92.08%

SMILES: C=C(NC(=O)C(=C)NC(=O)c1ccc2c(n1)-c1coc(n1)C(=C)NC(=O)C(=C)NC(=O)c1nc(oc1C)C(=C)NC(=O)C(C(C)(C)O)NC(=O)C(=C)NC(=O)c1coc(n1)/C(=C/C)NC(=O)[C@H]([C@@H](C)O)NC(=O)c1csc-2n1)C(N)=O (stereo partly drawn) [Geninthiocin]
- Pf_72h_%Growth_Rep1 [1, 4]: 87.80%
- Pf_72h_%Growth_Rep2 [1, 5]: 33.98%
- Pf_120h_%Growth_Rep1 [2, 6]: 87.82%
- Pf_120h_%Growth_Rep2 [2, 7]: 106.01%
- Tg_72h_%Growth_Rep1 [3, 4]: 124.28%
- Tg_72h_%Growth_Rep2 [3, 5]: 90.80%

SMILES: CN[C@H](CC(C)C)C(=O)N[C@H]1C(=O)N[C@@H](CC(N)=O)C(=O)N[C@H]2C(=O)N[C@H]3C(=O)N[C@H](C(=O)N[C@H](C(=O)O)c4cc(O)cc(O)c4-c4cc3ccc4O)[C@H](O)c3ccc(c(Cl)c3)Oc3cc2cc(c3O[C@@H]2O[C@H](CO)[C@@H](O)[C@H](O)[C@H]2O[C@H]2C[C@](C)(N)[C@H](O)[C@H](C)O2)Oc2ccc(cc2Cl)[C@H]1O [Vancomycin hydrochloride]
- activity at 2 µg/mL ([1]; 3D7, 72 h, read-out: Pf_72h_%Growth_Rep1): 88%
- activity at 2 µg/mL ([1]; 3D7, 72 h, read-out: Pf_72h_%Growth_Rep2): 120%
- activity at 2 µg/mL ([2]; 3D7, 120 h, read-out: Pf_120h_%Growth_Rep1): 110%
- activity at 2 µg/mL ([2]; 3D7, 120 h, read-out: Pf_120h_%Growth_Rep2): 98.5%
- percent parasite growth at 2 µg/mL ([3]; 72 h, read-out: Tg_72h_%Growth_Rep1): 108%
- percent parasite growth at 2 µg/mL ([3]; 72 h, read-out: Tg_72h_%Growth_Rep2): 80.9%
